Data reported in ChEMBL document CHEMBL1201862, “PubChem BioAssay data set” (2004).
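Method: 48-hour compound exposure of cells in 96-well plates, five concentrations, linear interpolation of endpoints. The concentration for 50% growth inhibition is given as GI50.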 Calls of active or inactive are those of the source. Cut-off read from the data, not from the text of the source: active = GI50 up to about 1.1 µM and inactive = higher.

Columns and labels:
Assay in all cases: NCI anticancer screen, dose series, 48 h
786-0 = tested on: 786-0
A498 = tested on: A498
ACHN = tested on: ACHN
BT-549 = tested on: BT-549
CAKI-1 = tested on: CAKI-1
COLO 205 = tested on: COLO 205
DU-145 = tested on: DU-145
EKVX = tested on: EKVX
HCC 2998 = tested on: HCC 2998
HCT-116 = tested on: HCT-116
HCT-15 = tested on: HCT-15
HL-60 = tested on: HL-60
HOP-62 = tested on: HOP-62
HT-29 = tested on: HT-29
Hs-578T = tested on: Hs-578T
IGROV-1 = tested on: IGROV-1
K562 = tested on: K562
KM12 = tested on: KM12
LOX IMVI = tested on: LOX IMVI
MCF7 = tested on: MCF7
MDA-MB-231 = tested on: MDA-MB-231
MDA-MB-435 = tested on: MDA-MB-435
MDA-N = tested on: MDA-N
MOLT-4 = tested on: MOLT-4
Malme-3M = tested on: Malme-3M
NCI-H226 = tested on: NCI-H226
NCI-H23 = tested on: NCI-H23
NCI-H460 = tested on: NCI-H460
NCI-H522 = tested on: NCI-H522
NCI/ADR-RES = tested on: NCI/ADR-RES
OVCAR-3 = tested on: OVCAR-3
OVCAR-4 = tested on: OVCAR-4
OVCAR-5 = tested on: OVCAR-5
OVCAR-8 = tested on: OVCAR-8
PC-3 = tested on: PC-3
RPMI-8226 = tested on: RPMI-8226
RXF 393 = tested on: RXF 393
SF-268 = tested on: SF-268
SF-295 = tested on: SF-295
SK-MEL-28 = tested on: SK-MEL-28
SK-MEL-2 = tested on: SK-MEL-2
SK-MEL-5 = tested on: SK-MEL-5
SN12C = tested on: SN12C
SNB-19 = tested on: SNB-19
SNB-75 = tested on: SNB-75
SR = tested on: SR
SW-620 = tested on: SW-620
T47D = tested on: T47D
TK-10 = tested on: TK-10
U-251 = tested on: U-251
UACC-257 = tested on: UACC-257
UACC-62 = tested on: UACC-62
UO-31 = tested on: UO-31
A549 = tested on: A549
CCRF-CEM = tested on: CCRF-CEM
HOP-92 = tested on: HOP-92
M14 = tested on: M14
SF-539 = tested on: SF-539
SK-OV-3 = tested on: SK-OV-3

Question: How did the GI50 (786-0) turn out when `CCO[C@@H]1CCC([S+]([O-])c2ccc(C)cc2)=CO1` (stereo partly specified) was run?
Answer: > 100 µM (inactive)

Question: What about the GI50 (A498) of the same compound?
Answer: > 100 µM (inactive)

Question: And the GI50 (ACHN)?
Answer: > 100 µM (inactive)

Question: What about the GI50 (BT-549) of the same compound?
Answer: > 100 µM (inactive)

Question: What about the GI50 (CAKI-1) of the same compound?
Answer: > 100 µM (inactive)

Question: And the GI50 (COLO 205)?
Answer: > 100 µM (inactive)

Question: And the GI50 (DU-145)?
Answer: > 100 µM (inactive)

Question: What about the GI50 (EKVX) of the same compound?
Answer: > 100 µM (inactive)

Question: And the GI50 (HCC 2998)?
Answer: > 100 µM (inactive)

Question: And the GI50 (HCT-116)?
Answer: > 100 µM (inactive)

Question: What about the GI50 (HCT-15) of the same compound?
Answer: > 100 µM

Question: And the GI50 (HL-60)?
Answer: 69.7 µM (inactive)

Question: And the GI50 (HOP-62)?
Answer: > 100 µM (inactive)

Question: And the GI50 (HT-29)?
Answer: > 100 µM (inactive)

Question: And the GI50 (Hs-578T)?
Answer: > 100 µM (inactive)

Question: What about the GI50 (IGROV-1) of the same compound?
Answer: > 100 µM (inactive)

Question: What about the GI50 (K562) of the same compound?
Answer: > 100 µM (inactive)

Question: What about the GI50 (KM12) of the same compound?
Answer: 34.2 µM (inactive)

Question: What about the GI50 (LOX IMVI) of the same compound?
Answer: > 100 µM (inactive)

Question: And the GI50 (MCF7)?
Answer: > 100 µM (inactive)

Question: What about the GI50 (MDA-MB-231) of the same compound?
Answer: > 100 µM (inactive)

Question: And the GI50 (MDA-MB-435)?
Answer: > 100 µM (inactive)

Question: What about the GI50 (MDA-N) of the same compound?
Answer: > 100 µM (inactive)

Question: And the GI50 (MOLT-4)?
Answer: 52.1 µM (inactive)

Question: What about the GI50 (Malme-3M) of the same compound?
Answer: > 100 µM (inactive)

Question: What about the GI50 (NCI-H226) of the same compound?
Answer: > 100 µM (inactive)

Question: What about the GI50 (NCI-H23) of the same compound?
Answer: > 100 µM (inactive)

Question: And the GI50 (NCI-H460)?
Answer: > 100 µM (inactive)

Question: What about the GI50 (NCI-H522) of the same compound?
Answer: > 100 µM (inactive)

Question: What about the GI50 (NCI/ADR-RES) of the same compound?
Answer: > 100 µM (inactive)

Question: What about the GI50 (OVCAR-3) of the same compound?
Answer: > 100 µM (inactive)

Question: And the GI50 (OVCAR-4)?
Answer: > 100 µM (inactive)

Question: And the GI50 (OVCAR-5)?
Answer: > 100 µM (inactive)

Question: What about the GI50 (OVCAR-8) of the same compound?
Answer: > 100 µM (inactive)

Question: And the GI50 (PC-3)?
Answer: > 100 µM (inactive)

Question: And the GI50 (RPMI-8226)?
Answer: > 100 µM (inactive)

Question: What about the GI50 (RXF 393) of the same compound?
Answer: > 100 µM (inactive)

Question: What about the GI50 (SF-268) of the same compound?
Answer: > 100 µM (inactive)

Question: And the GI50 (SF-295)?
Answer: > 100 µM (inactive)

Question: What about the GI50 (SK-MEL-28) of the same compound?
Answer: > 100 µM (inactive)

Question: What about the GI50 (SK-MEL-2) of the same compound?
Answer: > 100 µM (inactive)

Question: And the GI50 (SK-MEL-5)?
Answer: > 100 µM (inactive)

Question: And the GI50 (SN12C)?
Answer: > 100 µM (inactive)

Question: What about the GI50 (SNB-19) of the same compound?
Answer: > 100 µM (inactive)

Question: What about the GI50 (SNB-75) of the same compound?
Answer: > 100 µM (inactive)

Question: And the GI50 (SR)?
Answer: 60.7 µM (inactive)

Question: What about the GI50 (SW-620) of the same compound?
Answer: > 100 µM (inactive)

Question: And the GI50 (T47D)?
Answer: > 100 µM (inactive)

Question: And the GI50 (TK-10)?
Answer: > 100 µM (inactive)

Question: What about the GI50 (U-251) of the same compound?
Answer: > 100 µM (inactive)

Question: What about the GI50 (UACC-257) of the same compound?
Answer: > 100 µM (inactive)

Question: What about the GI50 (UACC-62) of the same compound?
Answer: > 100 µM (inactive)

Question: What about the GI50 (UO-31) of the same compound?
Answer: > 100 µM (inactive)

Question: Which results are given for `COc1cc(-c2c3c([nH]c(=O)c2C#N)-c2cc([N+](=O)[O-])ccc2CCC3)cc(OC)c1OC`?
Answer: GI50 (786-0): 24.7 µM (inactive); GI50 (A498): 14.2 µM (inactive); GI50 (A549): 23.8 µM (inactive); GI50 (ACHN): 21 µM (inactive); GI50 (BT-549): 17.5 µM (inactive); GI50 (CAKI-1): 26.9 µM (inactive); GI50 (CCRF-CEM): 21.7 µM (inactive); GI50 (COLO 205): 22 µM (inactive); GI50 (DU-145): 25.8 µM (inactive); GI50 (EKVX): 24.4 µM (inactive); GI50 (HCC 2998): 17.2 µM (inactive); GI50 (HCT-116): 18.8 µM (inactive); GI50 (HCT-15): 26.4 µM; GI50 (HL-60): 21.4 µM (inactive); GI50 (HOP-62): 19.9 µM (inactive); GI50 (HOP-92): 25.4 µM (inactive); GI50 (HT-29): 37.5 µM (inactive); GI50 (Hs-578T): 13.3 µM (inactive); GI50 (IGROV-1): 33.1 µM (inactive); GI50 (K562): 18.9 µM (inactive); GI50 (KM12): 20.2 µM (inactive); GI50 (LOX IMVI): 15.1 µM (inactive); GI50 (M14): 35.1 µM (inactive); GI50 (MCF7): 17.4 µM (inactive); GI50 (MDA-MB-231): 19.9 µM (inactive); GI50 (MDA-MB-435): 25.9 µM (inactive); GI50 (MDA-N): 21.1 µM (inactive); GI50 (MOLT-4): 16 µM (inactive); GI50 (Malme-3M): 22.8 µM (inactive); GI50 (NCI-H226): 22.7 µM (inactive); GI50 (NCI-H23): 17.4 µM (inactive); GI50 (NCI-H460): 16.8 µM (inactive); GI50 (NCI-H522): 15.6 µM (inactive); GI50 (NCI/ADR-RES): 42.4 µM (inactive); GI50 (OVCAR-3): 15.5 µM (inactive); GI50 (OVCAR-4): 21.5 µM (inactive); GI50 (OVCAR-5): 23.7 µM (inactive); GI50 (OVCAR-8): 17.8 µM (inactive); GI50 (PC-3): 20.2 µM (inactive); GI50 (RPMI-8226): 9.08 µM (inactive); GI50 (RXF 393): 22.1 µM (inactive); GI50 (SF-268): 24.2 µM (inactive); GI50 (SF-295): 16.1 µM (inactive); GI50 (SF-539): 24.3 µM (inactive); GI50 (SK-MEL-28): 43.5 µM (inactive); GI50 (SK-MEL-2): 17.9 µM (inactive); GI50 (SK-MEL-5): 12.9 µM (inactive); GI50 (SK-OV-3): 15.5 µM (inactive); GI50 (SN12C): 16.2 µM (inactive); GI50 (SNB-19): 30.8 µM (inactive); GI50 (SNB-75): 21.7 µM (inactive); GI50 (SW-620): 40.5 µM (inactive); GI50 (T47D): 14.1 µM (inactive); GI50 (TK-10): 34.8 µM (inactive); GI50 (U-251): 23.6 µM (inactive); GI50 (UACC-257): 26.9 µM (inactive); GI50 (UACC-62): 13.3 µM (inactive); GI50 (UO-31): 19 µM (inactive)
